Measurements published in ChEMBL document CHEMBL1201862, “PubChem BioAssay data set” (2004).
Activity calls are given as the source filed them.

Key:
[1] = tested on: Streptococcus sp. 'group A'; experiment: Streptococcus pyogenes SK(-)GAS viability under kanamycin – luminescence, BacTiterGlo, confirmation, counter-screen for streptokinase expression inhibitor project, dose response (AID 1900); assay type: functional, organism-based
Streptokinase A = target: T1, Streptokinase A (Streptococcus pyogenes serotype M1, UniProt P10520); experiment: viability-normalized secreted streptokinase activity reduction – plasminogen activation absorbance, OD405, dose response (AID 1914); assay type: functional, Streptococcus pyogenes M1 GAS;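 also: secreted streptokinase activity via plasminogen activation per viability signal from cell pellet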
T1 sequence (P10520 whole entry): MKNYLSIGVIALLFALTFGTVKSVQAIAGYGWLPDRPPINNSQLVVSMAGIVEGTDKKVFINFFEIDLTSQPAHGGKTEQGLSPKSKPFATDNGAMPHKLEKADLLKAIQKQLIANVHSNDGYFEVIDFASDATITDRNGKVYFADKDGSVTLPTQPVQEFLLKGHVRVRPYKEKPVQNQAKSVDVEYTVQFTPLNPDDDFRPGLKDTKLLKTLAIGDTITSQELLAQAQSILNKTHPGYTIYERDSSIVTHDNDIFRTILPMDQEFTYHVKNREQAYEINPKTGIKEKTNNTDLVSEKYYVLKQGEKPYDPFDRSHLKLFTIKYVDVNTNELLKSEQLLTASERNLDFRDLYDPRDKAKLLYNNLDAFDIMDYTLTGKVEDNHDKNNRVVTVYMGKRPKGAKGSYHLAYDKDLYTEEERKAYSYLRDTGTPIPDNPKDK

[2] = viability of PTEN-deleted HCT116 cells – cell-based, HCT116 PTEN knockout, dose response (AID 1047); assay type: functional;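 also: HCT116 colon tumor cells with PTEN knocked out; cells exposed to compound for 60 hours before readout; potency for loss of cell viability measured by luminescence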
[3] = viability of HCT116 lacking mutant beta-catenin – cell-based, human colon tumor, dose response (AID 1045); assay type: functional;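 also: HCT116 colon tumor cells with beta catenin knocked out; cells exposed to compound for 60 hours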
Streptococcus = experiment: GAS UMAA2166 growth inhibition – luminescence, BacTiterGlo, counter-screen for streptokinase expression inhibitor project, dose response (AID 1915); assay type: functional, organism-based;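 also: potency for reduction of bacterial viability or growth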
X-box-binding protein 1 = X-box-binding protein 1 (Homo sapiens, UniProt P17861); assay type: functional, Cricetulus griseus;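 also: confirmatory dose-response counter-screen serving a CHOP assay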
Sequence of X-box-binding protein 1 (P17861 whole entry): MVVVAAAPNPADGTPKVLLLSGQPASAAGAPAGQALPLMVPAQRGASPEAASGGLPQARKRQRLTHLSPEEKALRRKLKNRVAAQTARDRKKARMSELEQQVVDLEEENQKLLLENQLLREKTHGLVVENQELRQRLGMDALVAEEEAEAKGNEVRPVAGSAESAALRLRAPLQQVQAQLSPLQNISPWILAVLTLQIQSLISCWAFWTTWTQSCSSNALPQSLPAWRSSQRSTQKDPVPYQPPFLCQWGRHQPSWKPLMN

Bcl-2-like protein 10 = Bcl-2-like protein 10 (Homo sapiens, UniProt Q9HD36); experiment: Bcl-B/TR3 peptide binding disruption – biochemical, fluorescence polarization, FITC-TR3 peptide, selectivity assay for Bfl-1 inhibitor project, primary screen (AID 748);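 also: fluorescence polarization from a fluorescein-labelled TR3 peptide binding purified Bcl-B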
Sequence of Bcl-2-like protein 10 (Q9HD36 whole entry): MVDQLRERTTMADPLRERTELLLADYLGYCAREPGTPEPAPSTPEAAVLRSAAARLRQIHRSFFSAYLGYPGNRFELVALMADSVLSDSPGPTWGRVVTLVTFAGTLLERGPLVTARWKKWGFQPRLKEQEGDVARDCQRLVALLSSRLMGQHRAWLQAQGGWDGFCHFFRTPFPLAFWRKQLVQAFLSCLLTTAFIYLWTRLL

Estrogen receptor beta [4] = target: T2, Estrogen receptor beta (Homo sapiens, UniProt Q92731);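 also: recombinant ER-beta bound to coactivator SRC1 peptide in presence of estradiol agonist; inhibitors block coactivator peptide binding and lower the FRET signal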
T2 sequence (Q92731 whole entry): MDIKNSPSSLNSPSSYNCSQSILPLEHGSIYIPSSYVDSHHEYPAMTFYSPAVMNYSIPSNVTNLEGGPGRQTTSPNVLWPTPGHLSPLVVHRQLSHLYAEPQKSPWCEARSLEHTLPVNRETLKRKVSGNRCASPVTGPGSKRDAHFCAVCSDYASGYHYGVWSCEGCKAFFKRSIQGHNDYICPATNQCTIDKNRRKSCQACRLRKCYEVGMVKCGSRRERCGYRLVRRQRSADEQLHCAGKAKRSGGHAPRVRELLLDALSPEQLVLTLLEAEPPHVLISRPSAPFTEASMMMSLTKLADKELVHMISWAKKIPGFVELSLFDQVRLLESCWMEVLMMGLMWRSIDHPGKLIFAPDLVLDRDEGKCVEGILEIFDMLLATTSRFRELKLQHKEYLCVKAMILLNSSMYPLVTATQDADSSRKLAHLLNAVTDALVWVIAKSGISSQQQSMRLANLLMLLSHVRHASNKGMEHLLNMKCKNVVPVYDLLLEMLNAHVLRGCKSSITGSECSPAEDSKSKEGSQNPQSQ

Estrogen receptor beta [5] = target: T2, Estrogen receptor beta; experiment: blockers of SRC-3 recruitment to ERβ – biochemical, ELISA, streptavidin-HRP readout, orthogonal assay, confirmation (AID 1060)
[6] = viability loss in THP-1 monocytes – THP-1 cells, cytotoxicity control for Vif-APOBEC3G degradation inhibitor project, dose response (AID 1117359); assay type: functional; conditions: THP-1
HEK293 [7] = experiment: inhibition of NOD1-driven NF-kB reporter – cell-based, luminescence, uHTS, primary screen (AID 1578); assay type: functional; conditions: Homo sapiens
HEK293 [8] = experiment: cells; assay type: functional, cell-based; conditions: Homo sapiens
HEK293 [9] = experiment: cells; assay type: functional, cell-based; conditions: Homo sapiens; remark: listed apart in the source
[10] = target: T3, Nucleotide-binding oligomerization domain-containing protein 2 (Homo sapiens, UniProt Q9HC29); experiment: inhibition of NOD2-driven NF-kB reporter – cell-based, luminescence, uHTS, HEK293 (AID 1566); assay type: functional
T3 sequence (Q9HC29 whole entry, the tested form may be a part): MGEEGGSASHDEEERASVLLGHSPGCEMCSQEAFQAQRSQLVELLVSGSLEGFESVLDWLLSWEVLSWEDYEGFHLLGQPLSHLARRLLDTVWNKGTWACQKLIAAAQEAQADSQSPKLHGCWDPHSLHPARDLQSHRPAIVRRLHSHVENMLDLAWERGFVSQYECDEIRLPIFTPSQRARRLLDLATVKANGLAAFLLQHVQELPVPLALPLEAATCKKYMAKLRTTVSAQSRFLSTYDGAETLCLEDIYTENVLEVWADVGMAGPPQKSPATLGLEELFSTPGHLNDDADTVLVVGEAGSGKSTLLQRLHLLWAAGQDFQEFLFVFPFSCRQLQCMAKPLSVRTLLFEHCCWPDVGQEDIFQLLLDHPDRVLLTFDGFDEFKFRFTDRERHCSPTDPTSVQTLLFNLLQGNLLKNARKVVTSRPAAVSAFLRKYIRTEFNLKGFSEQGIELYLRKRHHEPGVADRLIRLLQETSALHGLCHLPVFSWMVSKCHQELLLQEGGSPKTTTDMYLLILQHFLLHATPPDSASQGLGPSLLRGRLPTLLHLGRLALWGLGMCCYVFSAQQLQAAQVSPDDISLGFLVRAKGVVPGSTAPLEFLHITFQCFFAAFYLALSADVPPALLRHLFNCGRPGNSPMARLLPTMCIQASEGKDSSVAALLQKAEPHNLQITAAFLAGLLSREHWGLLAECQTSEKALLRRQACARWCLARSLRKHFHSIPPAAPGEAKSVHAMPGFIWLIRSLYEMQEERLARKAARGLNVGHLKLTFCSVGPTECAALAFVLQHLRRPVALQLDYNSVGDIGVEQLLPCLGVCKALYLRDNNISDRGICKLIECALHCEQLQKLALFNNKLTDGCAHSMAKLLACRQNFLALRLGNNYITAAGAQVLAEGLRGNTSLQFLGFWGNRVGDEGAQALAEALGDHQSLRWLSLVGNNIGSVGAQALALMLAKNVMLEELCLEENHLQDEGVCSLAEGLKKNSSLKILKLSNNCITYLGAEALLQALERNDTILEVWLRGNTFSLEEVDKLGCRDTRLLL

HEK293 [11] = experiment: NOD2 signaling inhibitors in MDP-stimulated cells, cell-based, uHTS, luminescence (AID 2001); assay type: functional; conditions: Homo sapiens
HEK293 [12] = experiment: cells; assay type: functional, cell-based; conditions: Homo sapiens; remark: listed apart in the source
Tumor necrosis factor = Tumor necrosis factor (Homo sapiens, UniProt P01375); experiment: analog potency on TNFa NF-kB signaling – cell-based, revised, SAR follow-up (AID 2337); assay type: functional
Sequence of Tumor necrosis factor (P01375 whole entry, the tested form may be a part): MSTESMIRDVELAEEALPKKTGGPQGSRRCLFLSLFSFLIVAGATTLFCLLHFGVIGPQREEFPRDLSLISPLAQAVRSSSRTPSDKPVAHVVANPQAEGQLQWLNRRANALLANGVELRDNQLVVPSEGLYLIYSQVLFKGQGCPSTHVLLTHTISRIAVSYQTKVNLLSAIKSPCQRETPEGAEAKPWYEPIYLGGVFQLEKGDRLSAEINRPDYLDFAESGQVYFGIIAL

[13] = target: T4, Nucleotide-binding oligomerization domain-containing protein 1 (Homo sapiens, UniProt Q9Y239); experiment: blockers of NOD1 pathway activity – revised, SAR follow-up (AID 2333); assay type: functional
T4 sequence (Q9Y239 whole entry): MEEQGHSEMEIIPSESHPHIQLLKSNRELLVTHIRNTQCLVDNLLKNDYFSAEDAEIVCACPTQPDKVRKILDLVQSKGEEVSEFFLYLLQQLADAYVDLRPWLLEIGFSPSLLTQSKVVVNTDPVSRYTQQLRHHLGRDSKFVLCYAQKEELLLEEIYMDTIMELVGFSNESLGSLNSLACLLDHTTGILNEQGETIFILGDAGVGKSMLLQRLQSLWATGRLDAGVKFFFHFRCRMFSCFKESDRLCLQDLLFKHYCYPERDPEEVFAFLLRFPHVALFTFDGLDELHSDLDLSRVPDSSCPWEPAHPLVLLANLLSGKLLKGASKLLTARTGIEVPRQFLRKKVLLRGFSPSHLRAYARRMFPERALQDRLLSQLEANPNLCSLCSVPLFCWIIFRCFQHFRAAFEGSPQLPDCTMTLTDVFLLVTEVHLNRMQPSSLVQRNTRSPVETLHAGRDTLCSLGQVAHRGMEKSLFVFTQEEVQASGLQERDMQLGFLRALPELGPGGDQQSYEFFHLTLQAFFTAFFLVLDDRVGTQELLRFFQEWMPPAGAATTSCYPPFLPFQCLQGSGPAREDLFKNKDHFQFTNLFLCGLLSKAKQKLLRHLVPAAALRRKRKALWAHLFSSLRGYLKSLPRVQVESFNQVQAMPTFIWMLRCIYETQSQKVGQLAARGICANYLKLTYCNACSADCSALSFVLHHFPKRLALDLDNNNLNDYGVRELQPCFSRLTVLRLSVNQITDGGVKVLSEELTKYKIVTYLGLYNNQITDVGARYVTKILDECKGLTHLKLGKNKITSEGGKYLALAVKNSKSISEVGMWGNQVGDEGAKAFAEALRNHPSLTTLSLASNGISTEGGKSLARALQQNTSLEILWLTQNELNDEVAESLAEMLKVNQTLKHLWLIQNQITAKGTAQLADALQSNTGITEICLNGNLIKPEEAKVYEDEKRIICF

[14] = target: T5, Heat shock factor protein 1 (Mus musculus, UniProt P38532); experiment: enhancement of HSF1-driven luciferase signal – cell-based, NIH3T3, luminescence, dose retest, confirmation (AID 435004); assay type: functional;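 also: stress induced by proteasome inhibitor MG132 added 30 min after compound; luciferase reporter driven by HSF1 response element in NIH3T3 cells; actives raise luminescence as potentiators of the MG132 stress response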
T5 sequence (P38532 whole entry): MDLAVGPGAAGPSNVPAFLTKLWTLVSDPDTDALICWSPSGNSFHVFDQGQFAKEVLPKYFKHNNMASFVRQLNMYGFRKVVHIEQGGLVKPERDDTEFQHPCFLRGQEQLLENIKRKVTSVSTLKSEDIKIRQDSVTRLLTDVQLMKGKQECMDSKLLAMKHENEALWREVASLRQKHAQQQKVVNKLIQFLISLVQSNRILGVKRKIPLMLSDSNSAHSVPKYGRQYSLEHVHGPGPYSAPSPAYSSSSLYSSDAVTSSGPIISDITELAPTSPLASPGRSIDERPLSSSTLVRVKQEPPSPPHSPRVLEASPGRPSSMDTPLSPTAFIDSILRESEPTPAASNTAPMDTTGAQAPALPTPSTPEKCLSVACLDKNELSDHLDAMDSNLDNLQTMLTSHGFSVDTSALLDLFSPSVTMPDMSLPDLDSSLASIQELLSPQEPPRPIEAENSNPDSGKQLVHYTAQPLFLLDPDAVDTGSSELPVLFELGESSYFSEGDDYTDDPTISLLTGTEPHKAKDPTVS

[15] = target: T3, Nucleotide-binding oligomerization domain-containing protein 2; experiment: PubChem AID 2334; assay type: functional
[16] = target: T6, Corticotropin-releasing factor receptor 2/Corticotropin-releasing factor-binding protein (Homo sapiens, UniProt P24387+Q13324); experiment: Dose Response confirmation of uHTS hits for small molecule antagonists of the CRF-binding protein and CRF-R2 receptor complex.; assay type: functional; conditions: read-out: IC50_Mean
T6 sequence (Q13324 whole entry): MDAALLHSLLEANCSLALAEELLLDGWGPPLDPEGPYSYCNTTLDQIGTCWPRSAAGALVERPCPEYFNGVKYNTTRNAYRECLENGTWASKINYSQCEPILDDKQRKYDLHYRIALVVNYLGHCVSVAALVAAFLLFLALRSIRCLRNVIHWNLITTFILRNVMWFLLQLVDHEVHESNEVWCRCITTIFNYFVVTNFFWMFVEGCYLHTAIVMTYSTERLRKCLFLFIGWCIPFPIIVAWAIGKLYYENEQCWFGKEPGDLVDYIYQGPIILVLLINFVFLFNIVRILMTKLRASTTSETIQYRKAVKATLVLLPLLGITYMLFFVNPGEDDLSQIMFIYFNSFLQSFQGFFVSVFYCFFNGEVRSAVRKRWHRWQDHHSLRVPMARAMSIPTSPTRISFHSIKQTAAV
T6 sequence (P24387 whole entry): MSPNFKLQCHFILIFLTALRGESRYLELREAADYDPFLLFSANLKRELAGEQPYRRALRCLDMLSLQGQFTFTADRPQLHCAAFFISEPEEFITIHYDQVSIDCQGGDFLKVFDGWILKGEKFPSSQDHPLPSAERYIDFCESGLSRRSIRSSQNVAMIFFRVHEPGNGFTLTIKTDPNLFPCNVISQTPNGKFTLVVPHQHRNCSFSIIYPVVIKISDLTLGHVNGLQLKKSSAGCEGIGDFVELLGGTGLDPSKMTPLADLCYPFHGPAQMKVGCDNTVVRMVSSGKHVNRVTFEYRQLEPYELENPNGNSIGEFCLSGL

[17] = target: T6, Corticotropin-releasing factor receptor 2/Corticotropin-releasing factor-binding protein; experiment: activators of CRF receptor 2 with binding protein – uHTS hits, confirmation (AID 602473); assay type: functional; conditions: read-out: EC50_Mean
HEK293 [18] = experiment: cells; conditions: Homo sapiens
[19] = HepG2 cell cytotoxicity, dose response, cytotoxicity control for non-replicating M. tuberculosis project (AID 489018); assay type: functional; conditions: Mycobacterium tuberculosis
[20] = Vero E6 cell cytotoxicity, dose response, cytotoxicity control for non-replicating M. tuberculosis project, secondary assay (AID 492998); assay type: functional, VeroE6; conditions: Vero C1008
cells = assay type: functional

Oc1[nH]c2ccccc2c1N=NC(S)=NCCc1ccccc1
active: EC50 [1] 4.7 µM | EC50 [2] 24 µM | EC50 [3] 23 µM | EC50 (Streptococcus) 10.9 µM
10 µM: Absolute IC50 (XBP1) (X-box-binding protein 1)
> 150 µM (not active): EC50 (Streptokinase A)

O=C(CSc1ccc(Cl)cc1)c1ccco1
17.9 µM (not active): IC50 (Estrogen receptor beta [5])
active: IC50 (Bcl-2-like protein 10) 25.5 µM | IC50 (Estrogen receptor beta [4]) < 1.56 µM | CC50 [6] > 40 µM

O=C(NC(=S)N1CCN(c2ccc(F)cc2)CC1)c1cccs1
active: IC50 [13] 19.4 µM
inactive: EC50 (HEK293 [7]) > 20 µM | IC50 (HEK293 [8]) > 20 µM | IC50 (HEK293 [9]) > 20 µM | EC50 [10] > 20 µM | IC50 (HEK293 [11]) 10 µM | IC50 (HEK293 [12]) > 20 µM | IC50 (Tumor necrosis factor) > 20 µM | EC50 [14] > 260 µM | IC50 [15] > 20 µM | IC50 [16] > 47.1 µM | EC50 [17] > 53 µM | IC50 (HEK293 [18]) > 20 µM

COc1ccc(CCNc2nc(-c3ccccn3)cs2)cc1OC
active: EC50 [1] 14.3 µM | CC50 [19] > 20 µM | CC50 [20] 14.7 µM | IC50 (cells) 1.14 µM
> 150 µM (not active): EC50 (Streptokinase A) | EC50 (Streptococcus)

O=C(C1CC1)N1CCc2cc(S(=O)(=O)N3CCN(c4ccc(Cl)cc4)CC3)ccc21
inactive: IC50 (Tumor necrosis factor) > 20 µM | IC50 [13] > 20 µM | IC50 [15] > 20 µM | IC50 (HEK293 [18]) > 20 µM
